What was measured:
[1] = target: T1, R232 variant of human STING (Homo sapiens, UniProt Q86WV6, H232R); assay: Luciferase (ISRE.ISG reporter) assay in HEK293T cells stably expressing R232 hSTING; assay type: cell-based; details: for EC50: HEK293T cells expressing R232 hSTING, luciferase reporter, read-out: HEK.R232 EC50; for activity against R232 STING, in words: HEK.R232 cellular assay
T1 construct: the ER fraction from R232.STING transfected HEK293T cells which contained full length STING
Description: (§1) • a) Stable STING expressing cells. Stable HEK293T STING-expressing cell lines were generated using plasmids purchased from Invivogen, CA, USA, that contain STING cDNA cloned into the pUNO-1 vector under the hEF1-HTLV promoter as well as the Blasticidin selection cassette. The human STING plasmids corresponding to the R232, H232 and HAQ variants were directly procured from Invivogen while the AQ and Q variants were created by mismatch PCR using cDNA from HAQ.STING and R232.STING variants respectively. These vectors were individually transfected into HEK293T cells using Lipofectamine (Invitrogen) and transfected cells were expanded under Blasticidin selection. These cells were further subjected to clonal selection using the limiting dilution method to obtain clonally pure populations of HEK293T cells expressing each of the five human STING variants. Clones with minimal ligand independent activation of STING were chosen for cellular experiments. • b) N-His R232.hSTING HEK293T cells. HEK293T cells stably expressing N-His R232.hSTING were generated by the following described method. N-His R232.hSTING.pcDNA Myc B plasmid was transfected into HEK293T cells using Lipofectamine reagent (Invitrogen) and the transfected cells were selected under Hygromycin. Stably STING expressing HEK293T cells thus selected were further subjected to single cell clonal selection using the limiting dilution method to obtain a clonally pure population of HEK293T cells expressing the human R232 STING variant.
[…] clonally selected HEK293T-hSTING-Luciferase cells or control HEK293T-Luciferase cells were seeded in 384-well plates in growth medium and stimulated with known STING agonists or novel compounds. […]

HAQ STING (THP-1 cells) = target: T2, HAQ STING (THP-1 cells) (Homo sapiens, UniProt Q86WV6, G230A/R293Q/R71H); assay: THP1 cellular assay (EC50); assay type: cell-based; details: for THP-1 EC50 / EC50: THP-1 cells (HAQ STING); for activation of THP1 cells, in words: THP1 cellular assay
T2 construct: THP1 cells constitutively express the HAQ variant of human STING; host or cells: THP-1

[2] = target: T3, recombinant CTT domain of R232 STING (Homo sapiens, UniProt Q86WV6, H232R); assay: In vitro kinase assay, recombinant CTT domain of R232 STING plus recombinant TBK1; assay type: biochemical; details: STING source not stated (S3 Fig)
T3 construct: corresponding to the soluble domain of STING (138 to 379 aa) protein; purchased Cayman Chemicals (STING); Invitrogen (TBK1) 22816 (STING); A31514 (TBK1)
Method: 50ng of recombinant STING protein (Cayman Chemicals Cat# 22816) corresponding to the soluble domain of STING (138 to 379 aa) protein or 1 μl of ER fraction (8mg/ml) containing full length STING from R232.hSTING was incubated with 20 ng of recombinant full length TBK1 protein (Invitrogen, Cat# A31514) in the presence/absence of test compound in 20 μl reaction buffer (50mM Tris-HCl of pH 7.4, 100mM NaCl, 5mM MgCl2, 5mM MnCl2, 10% glycerol, 0.2mM Na3VO4, 20mM β-glycero-PO4, 0.5mM ATP) and 0.01% BSA at 30 °C for 45 min. The reaction was quenched by addition of 2 μl of 10X EDTA to a final concentration of […]. Samples were treated with 4x gel loading dye followed by electrophoresis in 10% SDS-PAGE gels and transferred to Immobilon-P membranes (Millipore). […] Anti-rabbit HRP labelled secondary antibody (Abcam) and Clarity Max™ western ECL substrate (Biorad, Cat# 1705062) were used for visualization of bands using a BioRad XRS plus imager.

[3] = system: multiple STING variants overexpressed in HEK293T cells; assay: Luciferase reporter assay of STING variants overexpressed in HEK293T cells (Compound 8); assay type: cell-based, human; details: HEK293T cells (S4 Fig)
Description: as §1, with “HEK293T cells stably expressing N-His R232.hSTING were generated by the following described method. N-His R232.hSTING.pcDNA Myc B plasmid was transfected into HEK293T cells using Lipofectamine reagent (Invitrogen) and the transfected cells were selected under Hygromycin. Stably STING expressing HEK293T cells thus selected were further subjected to single cell clonal selection using the limiting dilution method to obtain a clonally pure population of HEK293T cells expressing the human R232 STING variant.” left out
5 x 10^5 clonally selected HEK293T-hSTING-Luciferase cells or control HEK293T-Luciferase cells were seeded in 384-well plates in growth medium and stimulated with known STING agonists or novel compounds. Supernatants were removed after 20 hours of treatment and secretory reporter gene activity was measured using the Quanti-Luc detection system (Invivogen) on a Spectramax i3X luminometer.

[4] = system: Human STING variants (HEK293T cells); assay: Phosphorylation of STING variants overexpressed in HEK293T cells (Compound 8); assay type: cell-based; details: HEK293T cells (S5 Fig)
Method: 5 x 10^5 cells were seeded in 24-well plates in 500 μl growth medium and stimulated with novel compounds at 10μM. After 2 hours of treatment cells were harvested by centrifugation and cell pellets were lysed in RIPA buffer (20mM Tris-Cl, 150mM NaCl, 0.5mM EDTA, 1% NP40, 0.05% SDS) containing 1x phosphatase inhibitor cocktail 3 (Sigma) and 1x protease inhibitor (Roche) to extract the soluble fraction of protein. 10 μg of extracted protein was electrophoresed in 10% SDS-PAGE gels and transferred onto Immobilon-P membranes (Millipore). […] Anti-rabbit HRP label secondary antibody (Abcam) and Clarity Max™ western ECL substrate (Biorad—cat# 1705062) were used for visualization of bands using a BioRad XRS plus imager.

STING in human PBMCs = target: T4, STING in human PBMCs (Homo sapiens, UniProt Q86WV6); assay: Phosphorylation of STING in human PBMCs; assay type: cell-based; details: multiple donors (S6 Fig)
T4 construct: endogenous in cells; host or cells: human PBMCs, multiple donors

[5] = target: T5, STING in human tumor lines (Homo sapiens, UniProt Q86WV6); assay: Phosphorylation of STING in human tumor lines; assay type: cell-based; details: S7 Fig
T5 construct: endogenous in cells

human STING = system: human STING; set-up: method as in PMID 23585680; details: any variant of human STING; cited from earlier work

T1 sequence (Q86WV6 whole entry H232R): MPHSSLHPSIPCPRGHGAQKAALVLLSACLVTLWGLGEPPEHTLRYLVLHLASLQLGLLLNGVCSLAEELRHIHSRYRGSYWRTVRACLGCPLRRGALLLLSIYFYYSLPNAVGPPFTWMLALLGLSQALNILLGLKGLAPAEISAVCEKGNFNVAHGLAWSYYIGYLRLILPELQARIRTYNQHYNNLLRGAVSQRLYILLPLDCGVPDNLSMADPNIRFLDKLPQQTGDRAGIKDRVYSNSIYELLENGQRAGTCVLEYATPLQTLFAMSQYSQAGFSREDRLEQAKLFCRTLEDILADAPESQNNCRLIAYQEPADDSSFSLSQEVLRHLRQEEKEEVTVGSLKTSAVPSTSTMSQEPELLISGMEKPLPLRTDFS
T2 sequence (Q86WV6 whole entry R71H/G230A/R293Q): as the sequence (Q86WV6 whole entry H232R) above, with R71H, G230A, R232H, R293Q counted along it
T4 sequence (Q86WV6 whole entry): as the sequence (Q86WV6 whole entry H232R) above, with R232H counted along it
T5 sequence (Q86WV6 whole entry): as the sequence (Q86WV6 whole entry H232R) above, with R232H counted along it
T3 sequence (Q86WV6 138-379 H232R): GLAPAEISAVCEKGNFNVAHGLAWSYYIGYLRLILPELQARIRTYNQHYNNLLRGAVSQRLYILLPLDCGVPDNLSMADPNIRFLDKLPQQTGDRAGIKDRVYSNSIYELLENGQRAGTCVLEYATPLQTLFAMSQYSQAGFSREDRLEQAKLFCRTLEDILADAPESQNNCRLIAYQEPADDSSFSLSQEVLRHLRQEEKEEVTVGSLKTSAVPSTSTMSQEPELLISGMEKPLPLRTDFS

SMILES | EC50 [1] [nM] | activation of THP1 cells, in words (HAQ STING (THP-1 cells)) | EC50 (HAQ STING (THP-1 cells)) [nM] | activity against R232 STING, in words [1] | other results
O=C(NCc1ccco1)c1ccc2c(c1)N(Cc1c(Cl)cccc1Cl)C(=O)CS2 [Compound 1, 4-(2,6-Dichlorobenzyl)-N-(furan-2-ylmethyl)-3-oxo-3,4-dihydro-2H-benzo[b][1,4]thiazine-6-carboxamide] | 2160 | – | – | – | THP-1 EC50 (HAQ STING (THP-1 cells)): Nil @ 30uM
O=C(NCc1ccco1)c1ccc2c(c1)N(Cc1c(F)cccc1F)C(=O)CS2 [Compound 2, 4-(2,6-Difluorobenzyl)-N-(furan-2-ylmethyl)-3-oxo-3,4-dihydro-2H-benzo[b][1,4]thiazine-6-carboxamide] | 3970 | – | – | – | THP-1 EC50 (HAQ STING (THP-1 cells)): Nil @ 30uM
O=C(NCc1ccco1)c1ccc2c(c1)N(Cc1ccccc1)C(=O)CS2 [Compound 3, 1-Benzyl-N-(furan-2-ylmethyl)-2-oxo-2,3-dihydro-1H-benzo[b][1,4]thiazine-7-carboxamide] | 9130 | – | – | – | THP-1 EC50 (HAQ STING (THP-1 cells)): Nil @ 30uM
CC1Sc2ccc(C(=O)NCc3c(F)cc(F)cc3F)cc2N(Cc2cc(F)cc(F)c2)C1=O (stereo not shown) [Compound 10] | 421 | – | ~6000 | – | –
Cc1ccc2c(=O)c3cccc(CC(=O)O)c3oc2c1C [DMXAA, 5,6 dimethyl xanthenone 4-acetic acid] | – | – | – | – | activation of human STING variants (human STING): does not activate

Further lines, with some results ahead:

EC50 [1] [nM] | activation of THP1 cells, in words (HAQ STING (THP-1 cells)) | EC50 (HAQ STING (THP-1 cells)) [nM] | activity against R232 STING, in words [1] | SMILES | other results
292 | very weak activation | > 30000 | – | O=C(NCc1ccc(F)cc1F)c1ccc2c(c1)N(Cc1c(F)cccc1Cl)C(=O)CS2 [Compound 4, 4-(2-Chloro-6-fluorobenzyl)-N-(2,4-difluorobenzyl)-3-oxo-3,4-dihydro-2H-benzo[b][1,4]thiazine-6-carboxamide] | –
188 | very weak activation | > 10000 | – | O=C(NCc1c(F)cc(F)cc1F)c1ccc2c(c1)N(Cc1c(F)cccc1Cl)C(=O)CS2 [Compound 5, 4-(2-Chloro-6-fluorobenzyl)-3-oxo-N-(2,4,6-trifluorobenzyl)-3,4-dihydro-2H-benzo[b][1,4]thiazine-6-carboxamide] | –
160 | – | > 10000 | sharp increases in activity | COc1cc(F)c(CN2C(=O)CSc3ccc(C(=O)NCc4c(F)cc(F)cc4F)cc32)c(F)c1 [Compound 6, 4-(2,6-Difluoro-4-methoxybenzyl)-3-oxo-N-(2,4,6-trifluorobenzyl)-3,4-dihydro-2H-benzo[b][1,4]thiazine-6-carboxamide] | –
71.6 | significant activity | 1380 | sharp increases in activity | O=C(NCc1c(F)cc(F)cc1F)c1ccc2c(c1)N(Cc1c(F)cc(O)cc1F)C(=O)CS2 [Compound 7, 4-(2,6-Difluoro-4-hydroxybenzyl)-3-oxo-N-(2,4,6-trifluorobenzyl)-3,4-dihydro-2H-benzo[b][1,4]thiazine-6-carboxamide] | –
122 | sub-micromolar activity | 944 | sub-micromolar activity | CC1Sc2ccc(C(=O)NCc3c(F)cc(F)cc3F)cc2N(Cc2c(F)cccc2Cl)C1=O (stereo not shown) [Compound 8, 4-(2-Chloro-6-fluorobenzyl)-2-methyl-3-oxo-N-(2,4,6-trifluorobenzyl)-3,4-dihydro-2H-benzo[b][1,4]thiazine-6-carboxamide] | activity in the cell-free pSTING assay [2]: confirmed activity; activation of multiple STING variants, luciferase reporter assay [3]: activated; phosphorylation of human STING variants [4]: phosphorylated; phosphorylation of STING in human PBMCs (STING in human PBMCs): phosphorylated STING; phosphorylation of STING in human tumor lines [5]: phosphorylated STING
96 | sub-micromolar activity | 412 | sub-micromolar activity | CC1Sc2ccc(C(=O)NCc3c(F)cc(F)cc3F)cc2N(Cc2c(F)ccc(O)c2Cl)C1=O (stereo not shown) [Compound 9, 4-(2-Chloro-6-fluoro-3-hydroxybenzyl)-2-methyl-3-oxo-N-(2,4,6-trifluorobenzyl)-3,4-dihydro-2H-benzo[b][1,4]thiazine-6-carboxamide] | –
91 | – | ~8000 | – | CC1Sc2ncc(C(=O)NCc3cc4ccccc4o3)cc2N(Cc2cc(F)cc(F)c2)C1=O (stereo not shown) [Compound 12, N-(Benzofuran-2-ylmethyl)-1-(3,5-difluorobenzyl)-3-methyl-2-oxo-2,3-dihydro-1H-pyrido[2,3-b][1,4]thiazine-7-carboxamide] | –

Source: article PMC7482845, “G10 is a direct activator of human STING” (PLoS ONE, 2020)
